Results reported in patent US10731187B2, “Recombinant strain producing O-aminobenzoate and fermentative production of aniline from renewable resources via 2-aminobenzoic acid” (Covestro Deutschland AG, priority 2014, dated 2020).

How the values were obtained:
[1] = cited from earlier work
[2] = molecular target: T1, E. coli TrpEG (anthranilate synthase) variant TrpEGS40R, mutation S40R (SEQ ID NO: 52; SEQ ID No. 50-51) (Escherichia coli, UniProt P00895); assay: Anthranilate synthase activity in cell lysate of C. glutamicum ΔtrpD/pEKEx2-trpEG^S40R (KM and vmax); type: biochemical; details: raw extract (cell lysate), 25 °C, 20 mM L-glutamine, 10 mM MgCl2
T1 construct: S40R lies in TrpE
From the text: In more specific embodiments of the recombinant microbial host cell of invention, the Corynebacterium glutamicum microbial host cell, preferably Corynebacterium glutamicum ATCC 13032, can further overexpress one or more of the genes selected from the group consisting of galP (SEQ ID NO: 30), iolT2 (SEQ ID NO: 31), ppgk (SEQ ID NO: 32), pps (SEQ ID NO: 33-35), ppk (SEQ ID NO: 36), zwfl (SEQ ID NO: 37), opcA (SEQ ID NO: 38-39), tktCg (SEQ ID NO: 40), tktEc (SEQ ID NO: 41), talCg (SEQ ID NO: 42), tame (SEQ ID NO: 43), a gene encoding TrpEGS38F (trpEG^S38F, SEQ ID NO: 50), a gene encoding TrpEGS38R (trpEG^S38R, SEQ ID NO: 51), a gene encoding TrpEGS40R (trpEG^S40R, SEQ ID NO: 52), a gene encoding TrpEGS40F (trpEG^S40F, SEQ ID NO: 53), the gene encoding AroGD146N (aroG^D146N, SEQ ID NO: 55), aroL of Escherichia coli LJ110 (SEQ ID NO: 93), aroK (SEQ ID NO: 94), glnA (SEQ ID NO: 95), and qsuA (SEQ ID NO: 96). […]

[3] = system: Corynebacterium glutamicum; assay: Growth (OD600) in shake flask cultures supplemented with toxic substances; type: cell-based, Corynebacterium glutamicum DSM 20300 (=ATCC 13032); details: 3 g/L, pH 7 (MOPS), 25 h
From the text: (§1) Several strains commonly used industrial biotechnology were investigated regarding their natural tolerance towards oAB and to organic solvents in question for later product extraction (e.g. 1-dodecanol or octanol). Furthermore, the influence of the used pH value was investigated. It was known from previous experiments that at least for E. coli the toxicity of aromatic compounds depends strongly on the pH value, probably because protonated acids can much more efficiently penetrate the cell membrane and accordingly their toxicity rises severely. The extraction of oAB in an organic phase is supposed to work best at low pH values, close to the isoelectric point of oAB. The most relevant host strains considered were: Escherichia coli K12, Corynebacterium glutamicum DSM 20300 (=ATCC 13032), Pseudomonas putida KT2440, Bacillus subtilis subsp. 168, Saccharomyces cerevisiae DSM 70449, and Pichia pastoris X33 (DSM 70382).
(§2) To investigate the chosen strains towards the mentioned characteristics shake flasks and small scale fermentation experiments were performed and the organisms were supplemented with the toxic substances (aminobenzoates, solvents) at differed concentrations, different pH values, and the behaviour of the strains was studied. […]

all organisms = assay: Toxicity of the extraction solvent octanol, shake flask growth; type: cell-based; details: 0.1 g/L and 3 g/L octanol
From the text: as §1, §2

P. putida = assay: Shake flask growth (OD600) with supplementation of toxic substances; type: cell-based, Pseudomonas putida KT2440; details: after octanol addition, pH 7, shake flask
From the text: as §1, §2

E. coli = assay: as above; type: cell-based, Escherichia coli K12; details: 3 g/L pAB, pH 7, shake flask
From the text: as §1, §2

Question: With CCCCCCCCCCCCO [1-dodecanol] as the compound, how does the miscibility in water ([1]; 1-dodecanol) read?
Answer: 0.004 g/L

Question: For C=C(O[C@@H]1C=C(C(=O)O)C=C[C@H]1O)C(=O)O [chorismate], which Vmax [2] is on record?
Answer: 317.9 mU/mg

Question: Which growth inhibition [3] does the source give for Nc1ccccc1C(=O)O [oAB, o-aminobenzoate] here?
Answer: growth was not inhibited

Question: With CCCCCCCCO [octanol] as the compound, how does the “growth (OD600)” value (all organisms) read?
Answer: unable to grow

Question: What about the “growth (OD600)” value (P. putida) of the same compound?
Answer: minor growth activity

Question: And the solubility in water ([1]; octanol)?
Answer: about 0.1 g/L

Question: With Nc1ccc(C(=O)O)cc1 [pAB, 4-aminobenzoate, reference compound] as the compound, how does the “growth (OD600)” value (E. coli) read?
Answer: not inhibited
